The nature of data set [1]: PAMPA (parallel artificial membrane permeability assay). The note with it: PAMPA; membrane permeation rate (Pe); 50 mM MOPSO buffer pH 6.5 with 5.0% glycocholic acid, 37° C., 18 hours; read-out: iPAMPA Pe. The format is in vitro ADME. The essentials: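 Artificial membrane was 10% (w/v) egg lecithin plus 0.5% (w/v) cholesterol in dodecane on a PVDF filter. A 10 mM DMSO stock was added at 0.5% (v/v) to donor buffer (50 mM MOPSO, pH 6.5, 5.0% glycocholic acid). After 18 h at 37 °C, LC/MS or LC/UV gave donor and acceptor levels for Pe.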
On the technique in general: In PAMPA a lipid-coated filter parts donor from acceptor wells.

Data set [2] in a line: Metabolic stability in human hepatic microsome. It is filed as in vitro ADME. The note with it: microsomes, pH 7.4; human hepatic microsome, NADPH(+); read-out: CL NADPH(+).

Structures are written as SMILES. Starred links: 1 amine or outer side, 2 acyl side, 3 side chain; linkers in the order of their positions; H or OH if unused. Positions of bridges follow the written chain, without caps; N, C: chain ends. Non-standard residues stand in square brackets, D forms with d. Residues, ends and D or L forms follow the SMILES beside them. *: point of attachment. NMeF = CN[C@@H](Cc1ccccc1)C(=O)O; NMeβAla = CN(CCC(=O)[*:2])[*:1]; NMeL = CN[C@@H](CC(C)C)C(=O)O; NMeV = CN[C@H](C(=O)O)C(C)C; NMeA = CN[C@@H](C)C(=O)O; Piperidide = C1CCN(*)CC1; dNMeA = CN[C@H](C)C(=O)O; Sar = CNCC(=O)O

Consider `CC(C)C[C@H]1C(=O)N(C)[C@@H](C)C(=O)N[C@@H]([C@@H](C)O)C(=O)N(C)[C@@H](C)C(=O)N(C)[C@@H](Cc2ccccc2)C(=O)N(C)CC(=O)N[C@H](C(=O)N(C)[C@@H](Cc2ccccc2)C(=O)N[C@@H](C)C(=O)N2CCCCC2)CC(=O)N(C)[C@@H](C)C(=O)N(C)[C@@H](C)C(=O)N[C@@H](C)C(=O)N[C@@H](Cc2ccccc2)C(=O)N1C` [DP-345] ([NMeA][NMeA]AF[NMeL][NMeA]T[NMeA][NMeF][Sar]D[NMeF]A-Piperidide; lactam N-11), for which, in data set [1], the Papp at 18 hours, 50 µM turned out to be 2.8 ×10⁻⁶ cm/s. The microsomal CLint at 1 uM in data set [2] was determined as 7 µL/min/mg.

For the compound `CC(C)C[C@H]1C(=O)N(C)[C@@H](C)C(=O)N(C)[C@@H](Cc2ccccc2)C(=O)N[C@@H]([C@@H](C)O)C(=O)N(C)[C@@H](C)C(=O)N(C)[C@@H](Cc2ccccc2)C(=O)N(C)[C@@H](C)C(=O)N[C@H](C(=O)N(C)[C@@H](Cc2ccccc2)C(=O)N[C@@H](C)C(=O)N2CCCCC2)CC(=O)N(C)CCC(=O)N(C)[C@@H](C)C(=O)N[C@@H](C)C(=O)N1C` [DP-346] ([NMeβAla][NMeA]A[NMeL][NMeA][NMeF]T[NMeA][NMeF][NMeA]D[NMeF]A-Piperidide; lactam N-11), in data set [1], the Papp at 18 hours, 50 µM came out at 4 ×10⁻⁶ cm/s. Besides, in data set [2], the microsomal CLint at 1 uM stood at 7 µL/min/mg.

Consider `CC(C)C[C@H]1C(=O)N[C@@H](C)C(=O)N(C)[C@@H](Cc2ccccc2)C(=O)N(C)[C@@H](C)C(=O)N(C)[C@@H](Cc2ccccc2)C(=O)N[C@H](C(=O)N(C)[C@@H](Cc2ccccc2)C(=O)N[C@@H](C)C(=O)N2CCCCC2)CC(=O)N(C)[C@H](C)C(=O)N(C)[C@@H](C)C(=O)N(C)[C@@H](CC(C)C)C(=O)N[C@@H]([C@@H](C)O)C(=O)N(C)[C@@H](C)C(=O)N1C` [DP-347] ([dNMeA][NMeA][NMeL]T[NMeA][NMeL]A[NMeF][NMeA][NMeF]D[NMeF]A-Piperidide; lactam N-11), for which, in data set [1], the Papp at 18 hours, 50 µM is 25 ×10⁻⁶ cm/s. For the same compound, in data set [2], the microsomal CLint at 1 uM is 40 µL/min/mg.

With `CC(C)C[C@H]1C(=O)N(C)[C@@H](Cc2ccccc2)C(=O)N[C@@H]([C@@H](C)O)C(=O)N(C)[C@@H](C)C(=O)N[C@@H](C)C(=O)N(C)[C@@H](Cc2ccccc2)C(=O)N[C@@H](C)C(=O)N(C)[C@@H](C(C)C)C(=O)N(C)[C@@H](C)C(=O)N[C@H](C(=O)N(C)[C@@H](Cc2ccccc2)C(=O)N[C@@H](C)C(=O)N2CCCCC2)CC(=O)N(C)[C@H](C)C(=O)N1C` [DP-348] ([dNMeA][NMeL][NMeF]T[NMeA]A[NMeF]A[NMeV][NMeA]D[NMeF]A-Piperidide; lactam N-11), the Papp at 18 hours, 50 µM in data set [1] was 19 ×10⁻⁶ cm/s. Further, the microsomal CLint at 1 uM in data set [2] is 17 µL/min/mg.

Turning to `CC(C)C[C@H]1C(=O)N[C@H](C(=O)N(C)[C@@H](Cc2ccccc2)C(=O)N[C@@H](C)C(=O)N2CCCCC2)CC(=O)N(C)[C@@H](C)C(=O)N(C)[C@@H](C)C(=O)N[C@@H](C(C)C)C(=O)N(C)[C@@H](C)C(=O)N(C)[C@@H](Cc2ccccc2)C(=O)N[C@@H]([C@@H](C)O)C(=O)N(C)CC(=O)N(C)[C@@H](C)C(=O)N1C` [DP-349] ([NMeA][NMeA]V[NMeA][NMeF]T[Sar][NMeA][NMeL]D[NMeF]A-Piperidide; lactam N-10), in data set [1], the Papp at 18 hours, 50 µM was determined as 3.9 ×10⁻⁶ cm/s. Further, in data set [2], the microsomal CLint at 1 uM was determined as 13 µL/min/mg.

Consider `CC(C)C[C@@H]1NC(=O)[C@H](CC(C)C)N(C)C(=O)[C@H](C)N(C)C(=O)C[C@@H](C(=O)N(C)[C@@H](Cc2ccccc2)C(=O)N[C@@H](C)C(=O)N2CCCCC2)NC(=O)[C@H](CC(C)C)N(C)C(=O)[C@H](Cc2ccccc2)NC(=O)[C@H](Cc2ccccc2)N(C)C(=O)[C@H](C)NC(=O)[C@H]([C@@H](C)O)NC(=O)[C@H](CC(C)C)N(C)C1=O` [DP-350] ([NMeA][NMeL]L[NMeL]TA[NMeF]F[NMeL]D[NMeF]A-Piperidide; lactam N-10), for which the Papp at 18 hours, 50 µM in data set [1] was determined as 2 ×10⁻⁶ cm/s. Moreover, the microsomal CLint at 1 uM in data set [2] turned out to be 29 µL/min/mg.

These data come from US9409952B2, “Peptide-compound cyclization method” (Chugai Seiyaku Kabushiki Kaisha, priority 2011, dated 2016).
